Results taken from PubChem BioAssay AID2060484 (Molecular Pharmacology Branch, DTP, NCI, 2025).

Test system: SUM149PT spheroids with HUVEC/MSC, viability
Experiment: Anticancer human tumor SUM149PT cell line growth inhibition [GQUAD];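 also: spheroids exposed to drugs for seven days before readout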;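 as to viability, T/C: percent viability relative to DMSO vehicle control taken as 100%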
Conditions: for IC50: curve of first compound; for viability, T/C: stronger effect = lower value; active = viability on the fitted dose curve at most 10% of control; inactive = the rest
From the text: DNA G-quadruplex Stabilizer Agents in Combinations in Complex Spheroids
A high-throughput screen of multi-cell type tumor spheroids was designed to identify active combinations of DNA G-quadruplex stabilizer agents and targeted small molecules. Complex spheroids include a stromal component modeled by human endothelial cells (HUVEC) and fibroblasts modeled by human mesenchymal stem cells (MSCs). The concentration ranges selected for each drug and investigational agent were based upon clinically achievable concentrations if the clinical Cmax of the agent was known.
Compounds. The drugs and investigational agents: pidnarulex (CX-5461; NSC782164), APTO-253 (NSC789042), BRACO-19 (NSC847499), peposertib (NSC802822), ceralasertib (NSC780249), elimusertib (NSC800525), camonsertib (NSC841442), AZD-1390 (NSC803789), olaparib (NSC753686), talazoparib (NSC767125), ART-558 (NSC835418), sotorasib (NSC818433), MRTX-1133 (NSC836407), SN-38 (NSC673596), topotecan (NSC609699), etoposide (NSC141540), doxorubicin (NSC123127), gemcitabine (NSC613327), 5-fluorouracil (NSC19893), paclitaxel (NSC125973), vemurafenib (NSC761431), panobinostat (NSC761190), R-306465 (JNJ-16241199; NSC773264), adavosertib (NSC754352), TP-3654 (NSC805149), carboplatin (NSC241240), KSQ-4279 (NSC840948), and staurosporine (NSC755774) were obtained from the National Cancer Institute (NCI) Developmental Therapeutics Program Chemical Repository (34). The FDA-approved anticancer drug set is available from the NCI Developmental Therapeutics Program. […] The stock solutions were prepared in dimethyl sulfoxide (DMSO, Sigma-Aldrich, St. Louis, MO, cat. D2650) at 800-fold the tested concentration and stored at -70 degrees C prior to their use. All drugs and investigational agents were tested over a range starting from a high concentration at or near the clinical Cmax and decreasing in half-log increments. If the clinical Cmax for an agent had not been determined, the highest concentration tested was 10 microM.
2.3 Cell Culture. All cells were maintained in an incubator at 37 degrees C and 5% CO2 with 95% humidity. The PDC lines were cultured according to standard operating procedures established by the NCI PDMR. All PDCs were thawed and cultured in Matrigel-coated flasks prepared with a working solution of 1X Ham's F-12 nutrient mix, without supplementation (Invitrogen, cat. 11765054), 100 U/mL penicillin-streptomycin (Invitrogen, cat. 15140122), and 2.5% Matrigel (Corning Inc., cat. 354248) for the first three passages. The 857933-349-R-J2-PDC line was cultured in 6C/Colon 1B media, which includes advanced DMEM/F-12 (Thermo Fisher Scientific, cat. 12634028), 10 mM HEPES (Thermo Fisher Scientific, cat. 15630080), 1X GlutaMAX supplement (Thermo Fisher Scientific, cat. 35050061), 0.1 mg/mL primocin (InvivoGen, cat. ant-pm-2), 10% defined fetal bovine serum, heat inactivated (HyClone Laboratories Inc., cat. SH30070.03HI), 50% L-WRN conditioned media (ATCC, cat. CRL-3276), 1.25 mM N-Acetyl-L-cysteine (Sigma-Aldrich, cat. A9165), 10 mM nicotinamide (Sigma-Aldrich, cat. N0636), 1X B-27 supplement (Thermo Fisher Scientific, cat. 17504044), 1X N-2 supplement (Thermo Fisher Scientific, cat. 17502048), 10 microM Y-27632 dihydrochloride (Tocris Bioscience, cat. 1254), and 50 ng/mL human EGF recombinant protein (Thermo Fisher Scientific, cat. PHG0311). The 485176-168-R4-J1-PDC line was cultured in Panc media, which includes all 6C/Colon 1B media components plus 100 ng/mL human FGF-10 (Thermo Fisher Scientific, cat. 100-26), 500 nM SB-431542 (Selleckchem, cat. S1067), and gastrin (Tocris, cat. 3006).
[…]

[1] = second compound 0.0316 µM, first compound 0.0316 µM
[2] = second compound 0.0316 µM, first compound 0.1 µM
[3] = second compound 0.0316 µM, first compound 0.316 µM
[4] = second compound 0.0316 µM, first compound 1 µM
[5] = second compound 0.0316 µM, first compound 3.16 µM
[6] = second compound 0.0316 µM, first compound 10 µM
[7] = second compound 0.1 µM, first compound 0.0316 µM
[8] = second compound 0.1 µM, first compound 0.1 µM
[9] = second compound 0.1 µM, first compound 0.316 µM
[10] = second compound 0.1 µM, first compound 1 µM
[11] = second compound 0.1 µM, first compound 3.16 µM
[12] = second compound 0.1 µM, first compound 10 µM
[13] = second compound 0.316 µM, first compound 0.0316 µM
[14] = second compound 0.316 µM, first compound 0.1 µM
[15] = second compound 0.316 µM, first compound 0.316 µM
[16] = second compound 0.316 µM, first compound 1 µM
[17] = second compound 0.316 µM, first compound 3.16 µM
[18] = second compound 0.316 µM, first compound 10 µM
[19] = second compound 1 µM, first compound 0.0316 µM
[20] = second compound 1 µM, first compound 0.1 µM
[21] = second compound 1 µM, first compound 0.316 µM
[22] = second compound 1 µM, first compound 1 µM
[23] = second compound 1 µM, first compound 3.16 µM
[24] = second compound 1 µM, first compound 10 µM
[25] = second compound 3.16 µM, first compound 0.0316 µM
[26] = second compound 3.16 µM, first compound 0.1 µM
[27] = second compound 3.16 µM, first compound 0.316 µM
[28] = second compound 3.16 µM, first compound 1 µM
[29] = second compound 3.16 µM, first compound 3.16 µM
[30] = second compound 3.16 µM, first compound 10 µM
[31] = second compound 10 µM, first compound 0.0316 µM
[32] = second compound 10 µM, first compound 0.1 µM
[33] = second compound 10 µM, first compound 0.316 µM
[34] = second compound 10 µM, first compound 1 µM
[35] = second compound 10 µM, first compound 3.16 µM
[36] = second compound 10 µM, first compound 10 µM

C=CCn1c(=O)c2cnc(Nc3ccc(N4CCN(C)CC4)cc3)nc2n1-c1cccc(C(C)(C)O)n1 + Cc1[nH]c2ccc(F)cc2c1-c1nc2c3cccnc3c3ncccc3c2[nH]1
174 nM: IC50 (second compound 3.16 µM)
189 nM: IC50 (second compound 10 µM)
191 nM: IC50 (second compound 0.316 µM)
181 nM: IC50 (second compound 1 µM)
192 nM: IC50 (second compound 0.1 µM)
188 nM: IC50 (second compound 0.0316 µM)
inactive: viability, T/C [1] 98.9% | viability, T/C [2] 67% | viability, T/C [3] 34.8% | viability, T/C [4] 21% | viability, T/C [5] 10.4% | viability, T/C [7] 91.1% | viability, T/C [8] 73.5% | viability, T/C [9] 30.3% | viability, T/C [10] 21.4% | viability, T/C [11] 11.7% | viability, T/C [12] 7.7% | viability, T/C [13] 94.7% | viability, T/C [14] 72.5% | viability, T/C [15] 31.1% | viability, T/C [16] 21.9% | viability, T/C [17] 10.5% | viability, T/C [18] 11.6% | viability, T/C [19] 85.8% | viability, T/C [20] 66.1% | viability, T/C [21] 33.2% | viability, T/C [22] 22.6% | viability, T/C [23] 9.91% | viability, T/C [25] 84.2% | viability, T/C [26] 66.6% | viability, T/C [27] 31% | viability, T/C [28] 20.3% | viability, T/C [29] 9.05% | viability, T/C [31] 88.7% | viability, T/C [32] 66.6% | viability, T/C [33] 35.9% | viability, T/C [34] 20.1% | viability, T/C [35] 10.6%
active: viability, T/C [6] 7.37% | viability, T/C [24] 9.92% | viability, T/C [30] 8.88% | viability, T/C [36] 9.87%

C=CCn1c(=O)c2cnc(Nc3ccc(N4CCN(C)CC4)cc3)nc2n1-c1cccc(C(C)(C)O)n1 + Cc1cnc(CNC(=O)c2c(=O)c3ccc(N4CCCN(C)CC4)nc3n3c2sc2ccccc23)cn1
68.6 nM: IC50 (second compound 0.0316 µM)
inactive: viability, T/C [1] 74.3% | viability, T/C [2] 37% | viability, T/C [3] 22.9% | viability, T/C [4] 14.2% | viability, T/C [5] 9.59% | viability, T/C [7] 42.7% | viability, T/C [8] 34.8% | viability, T/C [9] 18.6% | viability, T/C [10] 16.3% | viability, T/C [13] 45.9% | viability, T/C [14] 32.1% | viability, T/C [15] 21.3% | viability, T/C [16] 16.5% | viability, T/C [17] 11.3% | viability, T/C [19] 34.5% | viability, T/C [20] 25.6% | viability, T/C [21] 20.6% | viability, T/C [22] 17.7% | viability, T/C [23] 13.7% | viability, T/C [24] 11.5% | viability, T/C [25] 32.9% | viability, T/C [26] 26.3% | viability, T/C [27] 20.3% | viability, T/C [28] 16.7% | viability, T/C [29] 12.7% | viability, T/C [30] 10.6%
active: viability, T/C [6] 8.42% | viability, T/C [11] 9.24% | viability, T/C [12] 8.01% | viability, T/C [18] 8.57% | viability, T/C [31] 0.17% | viability, T/C [32] 1.7% | viability, T/C [33] 0.84% | viability, T/C [34] 1.14% | viability, T/C [35] 0.21% | viability, T/C [36] 2.8%
< 31.6 nM: IC50 (second compound 0.1 µM) | IC50 (second compound 0.316 µM) | IC50 (second compound 1 µM) | IC50 (second compound 3.16 µM) | IC50 (second compound 10 µM)

CC(C)n1c(=O)n(C)c2cnc3cc(F)c(-c4ccc(OCCCN5CCCCC5)nc4)cc3c21 + Cc1cnc(CNC(=O)c2c(=O)c3ccc(N4CCCN(C)CC4)nc3n3c2sc2ccccc23)cn1
3880 nM: IC50 (second compound 0.316 µM)
inactive: viability, T/C [1] 56.4% | viability, T/C [2] 51.5% | viability, T/C [3] 55.8% | viability, T/C [4] 59% | viability, T/C [5] 59.9% | viability, T/C [6] 48.9% | viability, T/C [7] 55% | viability, T/C [8] 55.5% | viability, T/C [9] 52.6% | viability, T/C [10] 60.2% | viability, T/C [11] 64.7% | viability, T/C [12] 46.2% | viability, T/C [13] 52% | viability, T/C [14] 57% | viability, T/C [15] 52.2% | viability, T/C [16] 50.9% | viability, T/C [17] 54.1% | viability, T/C [18] 35.5% | viability, T/C [19] 39.6% | viability, T/C [20] 44.3% | viability, T/C [21] 48.4% | viability, T/C [22] 46.4% | viability, T/C [23] 48.8% | viability, T/C [24] 32.9% | viability, T/C [25] 37.7% | viability, T/C [26] 41.1% | viability, T/C [27] 42% | viability, T/C [28] 43.5% | viability, T/C [29] 39.9% | viability, T/C [30] 31.5% | viability, T/C [31] 0.24% | viability, T/C [32] 8.78% | viability, T/C [33] 32.2% | viability, T/C [34] 23% | viability, T/C [35] 1.78% | viability, T/C [36] 1.16%
< 31.6 nM: IC50 (second compound 1 µM) | IC50 (second compound 3.16 µM) | IC50 (second compound 10 µM)
> 10000 nM: IC50 (second compound 0.0316 µM) | IC50 (second compound 0.1 µM)

COc1ncnc(C2CC2)c1-c1ncc2cnn(Cc3ccc(-c4nc(C(F)(F)F)cn4C(C)C)cc3)c2n1 + Cc1cnc(CNC(=O)c2c(=O)c3ccc(N4CCCN(C)CC4)nc3n3c2sc2ccccc23)cn1
active: viability, T/C [31] 0.16% | viability, T/C [32] 11.9% | viability, T/C [33] 27.6% | viability, T/C [34] 11% | viability, T/C [35] 3.43% | viability, T/C [36] 1.12%
< 31.6 nM: IC50 (second compound 0.316 µM) | IC50 (second compound 1 µM) | IC50 (second compound 3.16 µM) | IC50 (second compound 10 µM)
> 10000 nM: IC50 (second compound 0.0316 µM)
31.6 nM: IC50 (second compound 0.1 µM)
inactive: viability, T/C [1] 87.3% | viability, T/C [2] 63.3% | viability, T/C [3] 62.1% | viability, T/C [4] 61.9% | viability, T/C [5] 70.5% | viability, T/C [6] 81.5% | viability, T/C [7] 55.3% | viability, T/C [8] 57.5% | viability, T/C [9] 45.2% | viability, T/C [10] 48.1% | viability, T/C [11] 57.1% | viability, T/C [12] 62.7% | viability, T/C [13] 45.1% | viability, T/C [14] 50.3% | viability, T/C [15] 45.6% | viability, T/C [16] 43.1% | viability, T/C [17] 48.1% | viability, T/C [18] 56.1% | viability, T/C [19] 37.4% | viability, T/C [20] 38.4% | viability, T/C [21] 47.1% | viability, T/C [22] 41.4% | viability, T/C [23] 40% | viability, T/C [24] 49.4% | viability, T/C [25] 35% | viability, T/C [26] 32.9% | viability, T/C [27] 34.1% | viability, T/C [28] 33.5% | viability, T/C [29] 40% | viability, T/C [30] 39.1%
